Test results reported in the supplement of paper PMC8967900.

Assays:
Assay in all cases: selective drug sensitivity score (sDSS, relative to normal bone marrow) (sDSS (score)); higher = more potent and effective on the cell line relative to normal bone marrow cells
Conditions in all cases: 72 h
NALM-16 = system: NALM-16
SUP-B15 = system: SUP-B15
SEM cells = system: SEM cells
REH = system: REH
PEER = system: PEER
697 = system: 697
COG-LL-317 = system: COG-LL-317
COG-LL-355h = system: COG-LL-355h
HAL-01 = system: HAL-01
JURKAT = system: JURKAT
MHH-CALL-2 = system: MHH-CALL-2
P30-OHKUBO = system: P30-OHKUBO
COG-LL-402h = system: COG-LL-402h
NALM-6 = system: NALM-6
ALL-SIL = system: ALL-SIL
LC4-1 = system: LC4-1
RPMI-8402 = system: RPMI-8402
KASUMI-2 = system: KASUMI-2
MOLT-14 = system: MOLT-14
MHH-CALL-3 = system: MHH-CALL-3
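Note: ALL cell lines in 384-well plates, five doses spanning 10,000-fold, each plate scaled between vehicle and 100 µmol/L benzalkonium chloride controls, sDSS an adapted area-under-curve metric.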

| SMILES | selective drug sensitivity score (NALM-16) | selective drug sensitivity score (SUP-B15) | selective drug sensitivity score (SEM cells) | selective drug sensitivity score (REH) | selective drug sensitivity score (PEER) | selective drug sensitivity score 697 | selective drug sensitivity score (COG-LL-317) | selective drug sensitivity score (COG-LL-355h) | selective drug sensitivity score (HAL-01) | selective drug sensitivity score (JURKAT) | selective drug sensitivity score (MHH-CALL-2) | selective drug sensitivity score (P30-OHKUBO) | selective drug sensitivity score (COG-LL-402h) | selective drug sensitivity score (NALM-6) | selective drug sensitivity score (ALL-SIL) | selective drug sensitivity score (LC4-1) | selective drug sensitivity score (RPMI-8402) | selective drug sensitivity score (KASUMI-2) | selective drug sensitivity score (MOLT-14) | selective drug sensitivity score (MHH-CALL-3) |
| --- | --- | --- | --- | --- | --- | --- | --- | --- | --- | --- | --- | --- | --- | --- | --- | --- | --- | --- | --- | --- |
| C=CC(=O)Nc1cc(Nc2nccc(-c3cn(C)c4ccccc34)n2)c(OC)cc1N(C)CCN(C)C [Osimertinib] (top concentration 2500 nM) | -4.42 | -2.02 | 0.58 | 0.88 | 1.28 | -1.42 | 0.78 | 2.98 | -0.42 | -4.22 | 3.18 | 1.08 | 0.78 | -1.62 | -2.52 | -0.42 | -0.42 | -3.52 | 0.08 | -4.62 |
| O=C(Nc1cc(Cl)cc2c1[nH]c1cnccc12)c1cccnc1 [PS-1145] (top concentration 25000 nM) | -0.46 | -0.46 | 0.04 | 1.94 | -0.46 | 0.44 | -0.46 | -0.46 | 2.14 | -0.36 | 6.74 | 1.94 | -0.46 | -0.46 | -0.46 | -0.46 | -0.46 | -0.46 | -0.46 | -0.46 |
| CC(=O)O[C@H]1C(=O)[C@@]2(C)[C@H]([C@H](OC(=O)c3ccccc3)[C@]3(O)C[C@H](OC(=O)[C@H](O)[C@@H](NC(=O)c4ccccc4)c4ccccc4)C(C)=C1C3(C)C)[C@]1(OC(C)=O)CO[C@@H]1C[C@@H]2O [Paclitaxel] (top concentration 1000 nM) | 14.1 | 21.1 | 21.3 | 23.1 | 22.2 | 22.4 | 19.6 | 5.14 | 0.74 | 18.3 | 17.3 | 22 | 12.8 | 16.7 | 20.8 | 23 | 16 | 18.3 | 19 | 5.24 |
| CCCCCCCCCCCCCCCCCCOP(=O)([O-])OC1CC[N+](C)(C)CC1 [Perifosine] (top concentration 2500 nM) | -0.36 | 1.04 | -0.36 | -0.36 | -0.36 | -0.36 | -0.36 | 0.64 | -0.26 | -0.36 | -0.26 | -0.36 | 4.04 | -0.36 | -0.36 | 4.04 | -0.36 | 8.74 | -0.36 | -0.36 |
| CC[C@@H]1C(=O)OC[C@@H]1Cc1cncn1C [Pilocarpine] (top concentration 40000 nM) | -1.56 | -1.56 | -1.56 | -1.56 | -1.56 | -1.56 | -1.56 | -1.56 | -1.56 | -1.56 | 4.44 | -1.56 | -1.56 | -1.56 | -0.76 | -1.56 | -1.56 | -1.56 | -0.36 | -1.56 |
| Nc1cccc2c1C(=O)N(C1CCC(=O)NC1=O)C2=O (stereo not given) [Pomalidomide] (top concentration 10000 nM) | -0.26 | -0.26 | 3.64 | 2.74 | -0.26 | 1.74 | -0.26 | 5.24 | -0.26 | -0.26 | -0.16 | 0.54 | 0.64 | -0.26 | -0.26 | 4.54 | -0.26 | -0.26 | -0.26 | -0.26 |
| Cc1nc(=O)c2cc(CN(C)c3ccc(C(=O)N[C@@H](CCC(=O)O)C(=O)O)s3)ccc2[nH]1 [Raltitrexed] (top concentration 1000 nM) | 9.12 | 28 | 23.9 | 24.3 | 13 | 25.8 | 19.5 | 4.82 | 21.2 | 14.6 | 19.6 | 25.3 | 8.22 | 23 | 17.3 | 19.3 | 23.4 | 15.8 | 17.7 | 9.92 |
| C=CC(=O)Nc1cccc(Nc2nc(Nc3ccc(N4CCN(C(C)=O)CC4)cc3OC)ncc2C(F)(F)F)c1 [Rociletinib] (top concentration 10000 nM) | 4.04 | 1.44 | 6.34 | 0.84 | 4.24 | 3.54 | 1.44 | 5.84 | 0.14 | 2.64 | 1.94 | 4.24 | 5.24 | 4.94 | 3.64 | 3.94 | 2.24 | -2.46 | 2.54 | -1.06 |
| CC(C)N(CCCNC(=O)Nc1ccc(C(C)(C)C)cc1)C[C@H]1O[C@@H](n2cc(Br)c3c(N)ncnc32)[C@H](O)[C@@H]1O [SGC0946] (top concentration 10000 nM) | -0.62 | -0.62 | -0.72 | 5.18 | 0.88 | -0.02 | -1.12 | 1.88 | 0.68 | -0.42 | 2.18 | 2.58 | -0.62 | -0.82 | -0.92 | -1.02 | 1.78 | -1.12 | -0.02 | -1.12 |
